{
  "source": "patent US20220184222A1",
  "about": "“BICYCLE TOXIN CONJUGATES AND USES THEREOF” (BicycleTx Limited, priority 2019, published 2022)",
  "key": {"[1]": {"tested_on": "CTG-0848", "experiment": "Champions TumorGraft NSCLC PDX efficacy, model CTG-0848", "type": "in vivo, Mus musculus", "description": "(§1) Mice were implanted subcutaneously into the left flank with tumor fragments from one of the various models. After tumors grew to an average of 150-300 mm^3, mice were treated by IV administration Q7Dx4 (n=2) with vehicle or 3 mg/kg of BT5528. Effects on tumor growth were evaluated by measuring percent tumor growth inhibition (% TGI), and the number of complete responders (CR), partial responders (PR), and tumor-free survivors (TFS). Tolerability was assessed by body weight loss, lethality, and clinical signs of adverse treatment-related side effects. Tumor volumes and body weights were measured twice a week.\n(§2) Dosing solutions of BT5528 […] were pre-formulated. These dosing solutions were stored at −80° C. in the dark. On each day of dosing, a frozen aliquot of each test agent was thawed, stored at 2-8° C. and used for dosing.\n(§3) The animals used in this study are described below: • Species: Mus musculus • Strain: Athymic Nude-Foxn1^nu (immune-compromised) • Source: Envigo (Indianapolis, Ind., USA) • Number of animals per group: 2 • Age and sex: At least 6-8 weeks of age at start of dosing, female • Weight: At least 18 grams at start of dosing • Acclimation period: 3 days\n(§4) Stock mice were implanted with tumor cells from Champions TumorGraft® models CTG-0160, CTG-0170, CTG-0178, CTG-0192, CTG-0363, CTG-0808, CTG-0838, CTG-0848, CTG-1212, CTG-1502, CTG-1535, CTG-2011, CTG-2393, CTG-2539 or CTG-2540. After the tumors reached 1000-1500 mm^3, they were harvested and the tumor fragments (approximately 5×5×5 mm^3) were implanted SC in the left flank of the female study mice. Each animal was implanted with a specific passage lot and documented. Tumor growth was monitored twice a week using digital calipers and the tumor volume (TV) was calculated using the formula (0.52×[length×width^2]). When the TV reached an average volume of 150-300 mm^3, animals were matched by tumor size and assigned into Vehicle Control and treatment groups (n=2/group) and dosing was initiated on Day 0. After the initiation of dosing on Day 0, animals were weighed twice per week using a digital scale and TV was measured twice per week and also on the final day of study. The study was completed when the mean tumor volume of Vehicle Control reached 1500 mm^3 or up to Day 60, whichever occurred first.\n(§5) Beginning on Day 0, animals were observed daily and weighed twice weekly using a digital scale; data including individual and mean gram weights, mean percent weight change versus Day 0 (% vD0) were recorded for each group and % vD0 plotted at study completion. […] Treatment resulting in a mean % vD0>20% and/or >10% mortality was considered above the maximum tolerated dose. Maximum mean % vD0 (weight nadir) for each treatment group was reported at study completion.\n(§6) Inhibition of tumor growth was determined by calculating the percent TGI (100%×[1−(final MTV−initial MTV of a treated group)/(final MTV−initial MTV of the control group)]). Treatment started on Day 0.\n(§7) Additional endpoints used to evaluate efficacy were: the number of complete responders (CR), partial responders (PR), and tumor-free survivors (TFS). PRs were considered exclusive of CRs, as were TFS.\n(§8) Statistical analyses of anti-tumor efficacy were performed using one-way ANOVA followed by Dunnett's multiple comparisons test (GraphPad Prism version 8.2.0). Significant p-values=<0.05.\nAnimals were dosed according to the schedule on Table 7-1. The study was terminated on Day 27."}, "[2]": {"tested_on": "Panc033", "experiment": "PDAC PDX Panc033 xenograft efficacy (Example 5)", "type": "in vivo, NSG mice", "settings": "3 mg/kg intravenously weekly, 4-week treatment period", "description": "BT5528 and Vehicle were prepared as described in the examples above, and tested in treatment of Pancreatic Ductal Adenocarcinoma (PDAC) in PDX models. PDX models effectively capture patient responses to oncology therapy in a heterogeneous cohort of patients with solid tumors with 80-100% correlation between the PDX and patient response (Izumchenko et al. 2017)\nPancreatic ductal adenocarcinoma patient derived xenograft tumors (PDAC PDX; Panc033 and Panc163) were implanted subcutaneously from source tumors into the flank of NSG mice. Tumor bearing animals were randomized to receive intravenously a weekly dosing of vehicle or 3 mg/kg BT5528. Tumor sizes were monitored by caliper measurements."}, "[3]": {"tested_on": "CTG-0160", "experiment": "Champions TumorGraft NSCLC PDX efficacy, model CTG-0160", "type": "in vivo, Mus musculus", "description": "as §1, §2, §3, §4, §5, §6, §7, §8\nAnimals were dosed according to the schedule on Table 7-1. The Vehicle Control group reached endpoint of average tumor volume >1500 mm^3 on Day 21 and was removed from the study. The study was terminated on Day 28. Therefore, the tumor volumes on Day 21 were used for analysis of anti-tumor activity."}, "[4]": {"settings": "CTG-0848, 3 mg/kg IV Q7Dx4, Day 0-27"}, "[5]": {"settings": "CTG-0160, 3 mg/kg IV Q7Dx4, Day 0-28"}},
  "note": "Starred links: 1 amine or outer side, 2 acyl side, 3 side chain; linkers in the order of their positions; H or OH if unused. Non-standard residues stand in square brackets, D forms with d. Residues, ends and D or L forms follow the SMILES beside them. *: point of attachment. Dolaproine = CO[C@@H]([C@@H]1CCCN1)[C@@H](C)C(=O)O; Dil = CC[C@H](C)[C@H](NC)[C@@H](CC(=O)O)OC; PABC = O=C(OCc1ccc(N[*:1])cc1)[*:2]; X1 = O=C(CCCC(=O)*)ON1C(=O)CCC1=O; X2 = C[C@@H](N*)[C@@H](O)c1ccccc1; Cit = NC(=O)NCCC[C@H](N)C(=O)O; NMeV = CN[C@H](C(=O)O)C(C)C",
  "data": [
    {"smiles": "CC[C@H](C)[C@@H]([C@@H](CC(=O)N1CCC[C@H]1[C@H](OC)[C@@H](C)C(=O)N[C@H](C)[C@@H](O)c1ccccc1)OC)N(C)C(=O)[C@@H](NC(=O)[C@H](C(C)C)N(C)C(=O)OCc1ccc(NC(=O)[C@H](CCCNC(N)=O)NC(=O)[C@@H](NC(=O)CCCC(=O)ON2C(=O)CCC2=O)C(C)C)cc1)C(C)C", "note": "[BT5528] (X1-V[Cit][PABC][NMeV]V[Dil][Dolaproine]-X2)", "values": [
      {"measurement": "MTV (mean tumor volume)", "setting": "[1]; 3 mg/kg Q7Dx4, Day 27", "result": "512±113", "unit": "mm^3"},
      {"measurement": "TGI", "setting": "[1]; 3 mg/kg Q7Dx4, Day 27", "result": 56, "unit": "%"},
      {"measurement": "# CR (complete responders)", "setting": "[1]; [4]", "result": "0/0/0"},
      {"measurement": "# PR (partial responders)", "setting": "[1]; [4]", "result": "0/0/0"},
      {"measurement": "# TFS (tumor-free survivors)", "setting": "[1]; [4]", "result": "0/0/0"},
      {"measurement": "% TGI", "setting": "[1]; CTG-0848, 3 mg/kg IV Q7Dx4, Day 27", "result": 56, "unit": "%"},
      {"measurement": "Day 27 Tumor Volume Mean TV ± SEM", "setting": "[1]; CTG-0848, BT5528 3 mg/kg IV Q7Dx4, Day 27, n=2", "result": "512 ± 113", "unit": "mm^3"},
      {"measurement": "anti-tumor activity (tumor size by caliper)", "setting": "[2]", "result": "significant anti-tumor activity from reduced tumor growth rate to decreasing tumor volumes"},
      {"measurement": "MTV (mean tumor volume)", "setting": "[3]; 3 mg/kg IV Q7Dx4, Day 21", "result": "400±187", "unit": "mm^3"},
      {"measurement": "TGI", "setting": "[3]; 3 mg/kg IV Q7Dx4, Day 21", "result": 87, "unit": "%"},
      {"measurement": "# CR (complete responders)", "setting": "[3]; [5]", "result": "0/0/0"},
      {"measurement": "# PR (partial responders)", "setting": "[3]; [5]", "result": "0/0/0"},
      {"measurement": "# TFS (tumor-free survivors)", "setting": "[3]; [5]", "result": "0/0/0"},
      {"measurement": "% TGI", "setting": "[3]; CTG-0160, 3 mg/kg IV Q7Dx4, Day 21", "result": 87, "unit": "%"},
      {"measurement": "Day 21 Tumor Volume Mean TV ± SEM", "setting": "[3]; CTG-0160, BT5528 3 mg/kg IV Q7Dx4, Day 21, n=2", "result": "400 ± 187", "unit": "mm^3"}
    ]}
  ]
}
